Calls of active or inactive are those of the source. The calls are words filed in the database; no cut-off is given here.
Assays:
[1] = tested on: Mus musculus; assay: Anti-colitis activity in DSS-induced ulcerative colitis C57BL/6 mouse model assessed as CD4+CD25+Foxp3+ Treg cell percentage in mesenteric lymph nodes at 100 mg/kg, po administered once a day for 10 days by flow cytometric analysis (reference value: 4.5 %); assay type: functional; settings: time 10 day
[2] = tested on: Mus musculus; assay: In vivo activation of AhR in C57BL/6 mouse assessed as increase in CYP1A1 mRNA expression at 100 mg/kg, po administered once a day for 10 days by qRT-PCR analysis; assay type: functional, organism-based; settings: time 10.0 day
[3] = tested on: Mus musculus; assay: Anti-colitis activity in DSS-induced ulcerative colitis C57BL/6 mouse model assessed as CD4+CD25+Foxp3+ Treg cell percentage in spleen at 100 mg/kg, po administered once a day for 10 days by flow cytometric analysis (reference value: 3.3%); assay type: functional; settings: time 10 day
[4] = molecular target: T1, Aryl hydrocarbon receptor (Mus musculus, UniProt P30561); assay: Activation of AhR transcription in C57BL/6 mouse naive T cells assessed as increase in CYP1A1 mRNA expression by measuring fold change at 3 uM by qRT-PCR analysis relative to control; assay type: cell-based; settings: T-cell, read-out: FC
T1 sequence (P30561 whole entry): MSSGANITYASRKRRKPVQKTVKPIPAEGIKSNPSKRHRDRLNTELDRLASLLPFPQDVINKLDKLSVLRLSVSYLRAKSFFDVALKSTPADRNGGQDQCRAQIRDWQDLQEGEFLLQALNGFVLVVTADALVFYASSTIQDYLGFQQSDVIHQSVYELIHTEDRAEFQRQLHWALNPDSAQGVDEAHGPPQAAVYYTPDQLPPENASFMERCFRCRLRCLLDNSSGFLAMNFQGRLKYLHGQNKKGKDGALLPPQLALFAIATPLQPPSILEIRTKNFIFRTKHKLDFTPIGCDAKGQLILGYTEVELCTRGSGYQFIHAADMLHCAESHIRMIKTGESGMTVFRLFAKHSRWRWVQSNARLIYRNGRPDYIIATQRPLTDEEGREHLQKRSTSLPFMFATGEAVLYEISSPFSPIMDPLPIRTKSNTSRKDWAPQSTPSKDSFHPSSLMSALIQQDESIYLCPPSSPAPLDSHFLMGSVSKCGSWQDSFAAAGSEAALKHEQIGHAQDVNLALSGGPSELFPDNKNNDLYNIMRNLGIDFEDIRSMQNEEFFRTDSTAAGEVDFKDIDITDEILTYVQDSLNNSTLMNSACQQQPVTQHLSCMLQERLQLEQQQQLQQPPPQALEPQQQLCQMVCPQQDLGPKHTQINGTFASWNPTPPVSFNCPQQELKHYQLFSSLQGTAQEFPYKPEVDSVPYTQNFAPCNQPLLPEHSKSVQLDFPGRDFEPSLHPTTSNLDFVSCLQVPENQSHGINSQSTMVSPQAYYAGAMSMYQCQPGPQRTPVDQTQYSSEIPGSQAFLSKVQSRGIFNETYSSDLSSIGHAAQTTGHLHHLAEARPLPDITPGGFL

[5] = tested on: Mus musculus; assay: Anti-colitis activity in DSS-induced ulcerative colitis C57BL/6 mouse model assessed as CD4+CD25+Foxp3+ Treg cell percentage in spleen at 40 mg/kg, po administered once a day for 10 days by flow cytometric analysis (reference value: 3.3%); assay type: functional; settings: time 10 day
[6] = Induction of cell differentiation in C57BL/6 mouse naive regulatory T cells assessed as increase in […] mRNA level by measuring fold change at 3 uM incubated for 72 hrs by qRT-PCR analysis; assay type: functional
[7] = Induction of cell differentiation in C57BL/6 mouse naive regulatory T cells assessed as increase in cell frequency at 3 uM incubated for 72 hrs by flow cytometric analysis (reference value: 24.9%); assay type: functional
[8] = tested on: Mus musculus; assay: Anti-colitis activity in DSS-induced ulcerative colitis C57BL/6 mouse model assessed as increase in CD4+CD25+Foxp3+ Treg cell ratio in mesenteric lymph nodes at 40 mg/kg, po administered once a day for 10 days by flow cytometric analysis (reference value: 4.5 %); assay type: functional; settings: time 10 day
[9] = Induction of cell differentiation in C57BL/6 mouse naive regulatory T cells assessed as increase in IL-10 mRNA level by measuring fold change at 3 uM incubated for 72 hrs by qRT-PCR analysis; assay type: functional
[10] = tested on: Mus musculus; assay: Anti-colitis activity against DSS-induced ulcerative colitis C57BL/6 mouse model assessed as decrease in colon MPO activity at 40 mg/kg, po administered once a day for 10 days; assay type: functional, organism-based; settings: time 10.0 day
[11] = tested on: Mus musculus; assay: In vivo activation of AhR in C57BL/6 mouse assessed as increase in CYP1A1 mRNA expression at 40 mg/kg, po administered once a day for 10 days by qRT-PCR analysis; assay type: functional, organism-based; settings: time 10.0 day
[12] = Unbound drug concentration in rat plasma at 20.13 ug/ml of total concentration measured after 12 hrs by ultrafiltration based HPLC analysis; assay type: ADME, cell-free; settings: dose 20.13 µg/ml
[13] = tested on: Regulatory T cell; assay: Induction of cell differentiation in C57BL/6 mouse naive regulatory T cells at 10 uM incubated for 72 hrs by flow cytometric analysis; assay type: functional, cell-based
[14] = Apparent oral clearance in Sprague-Dawley rat at 30 mg/kg measured upto 1440 min by LC-MS/MS analysis; assay type: ADME, organism-based; settings: in vivo, 24 h
[15] = Unbound drug concentration in rat plasma at 10.67 ug/ml of total concentration measured after 12 hrs by ultrafiltration based HPLC analysis; assay type: ADME, cell-free; settings: dose 10.67 µg/ml
[16] = molecular target: T1, Aryl hydrocarbon receptor; assay: Activation of AhR transcription in C57BL/6 mouse naive T cells assessed as increase in CYP1A1 mRNA expression by measuring fold change at 10 uM measured after 72 hrs by qRT-PCR analysis relative to control; assay type: cell-based; settings: T-cell, read-out: FC
[17] = tested on: Mus musculus; assay: Anti-colitis activity in DSS-induced ulcerative colitis C57BL/6 mouse model assessed as increase in CD4+CD25+Foxp3+ Treg cell ratio in mesenteric lymph nodes at 10 mg/kg, po administered once a day for 10 days by flow cytometric analysis (reference value: 4.5 %); assay type: functional; settings: time 10 day
[18] = tested on: Regulatory T cell; assay: Induction of cell differentiation in C57BL/6 mouse naive regulatory T cells assessed as increase in IL-10 mRNA level at 3 uM incubated for 72 hrs by qRT-PCR analysis; assay type: functional, cell-based
[19] = MRT in Sprague-Dawley rat at 3 mg/kg, iv measured upto 1440 min by LC-MS/MS analysis; assay type: ADME, organism-based; settings: in vivo
[20] = tested on: Mus musculus; assay: Anti-colitis activity in DSS-induced ulcerative colitis C57BL/6 mouse model assessed as CD4+CD25+Foxp3+ Treg cell percentage in spleen at 20 mg/kg, po administered once a day for 10 days by flow cytometric analysis (reference value: 3.3%); assay type: functional; settings: time 10 day
[21] = tested on: Regulatory T cell; assay: Induction of cell differentiation in C57BL/6 mouse naive regulatory T cells assessed as increase in […] mRNA level at 3 uM incubated for 72 hrs by qRT-PCR analysis; assay type: functional, cell-based
[22] = tested on: EL4; assay: Cytotoxicity against mouse EL4 cells assessed as inhibition of cell proliferation incubated for 72 hrs by MTT assay; assay type: functional, cell-based; settings: EL4, 72 h
[23] = AUC(0 to infinity) in Sprague-Dawley rat at 30 mg/kg, po measured upto 1440 min by LC-MS/MS analysis; assay type: ADME, organism-based; set-up: time < 1440 min, dose 30 mg/kg, route po; settings: in vivo
[24] = Induction of cell differentiation in C57BL/6 mouse naive regulatory T cells assessed as increase in cell frequency at 1 uM incubated for 72 hrs by flow cytometric analysis (reference value: 24.9%); assay type: functional
[25] = Induction of cell differentiation in C57BL/6 mouse naive regulatory T cells assessed as increase in cell frequency at 30 uM incubated for 72 hrs by flow cytometric analysis (reference value: 24.9%); assay type: functional
[26] = Half-life in Sprague-Dawley rat at 3 mg/kg, iv measured upto 1440 min by LC-MS/MS analysis; assay type: ADME, organism-based; settings: in vivo
[27] = tested on: Mus musculus; assay: Anti-colitis activity in DSS-induced ulcerative colitis C57BL/6 mouse model assessed as CD4+CD25+Foxp3+ Treg cell percentage in spleen at 10 mg/kg, po administered once a day for 10 days by flow cytometric analysis (reference value: 3.3%); assay type: functional; settings: time 10 day
[28] = Tmax in Sprague-Dawley rat at 30 mg/kg, po measured upto 1440 min by LC-MS/MS analysis; assay type: ADME, organism-based; settings: in vivo
[29] = tested on: Mus musculus; assay: Anti-colitis activity in DSS-induced ulcerative colitis C57BL/6 mouse model assessed as increase in CD4+CD25+Foxp3+ Treg cell ratio in mesenteric lymph nodes at 20 mg/kg, po administered once a day for 10 days by flow cytometric analysis (reference value: 4.5 %); assay type: functional; settings: time 10 day
[30] = AUC(0 to infinity) in Sprague-Dawley rat at 3 mg/kg, iv measured upto 1440 min by LC-MS/MS analysis; assay type: ADME, organism-based; set-up: dose 3 mg/kg, time < 1440 min, route iv; settings: in vivo
[31] = molecular target: T1, Aryl hydrocarbon receptor; assay: Activation of AhR transcription in C57BL/6 mouse naive T cells assessed as increase in CYP1A1 mRNA expression at 10 uM measured after 72 hrs by qRT-PCR analysis relative to control; assay type: cell-based; settings: t cell
[32] = Cmax in Sprague-Dawley rat at 30 mg/kg, po measured at 120 min by LC-MS/MS analysis; assay type: ADME, organism-based; set-up: dose 30 mg/kg, time 120 min, route po; settings: in vivo
[33] = Unbound drug concentration in rat plasma at 37.38 ug/ml of total concentration measured after 12 hrs by ultrafiltration based HPLC analysis; assay type: ADME, cell-free; settings: dose 37.38 µg/ml
[34] = Half-life in Sprague-Dawley rat at 30 mg/kg, po measured upto 1440 min by LC-MS/MS analysis; assay type: ADME, organism-based; settings: in vivo
[35] = Oral bioavailability in Sprague-Dawley rat at 30 mg/kg measured upto 1440 min by LC-MS/MS analysis; assay type: ADME, organism-based; settings: in vivo
[36] = tested on: Mus musculus; assay: In vivo activation of AhR in C57BL/6 mouse assessed as increase in CYP1A1 mRNA expression at 10 to 20 mg/kg, po administered once a day for 10 days by qRT-PCR analysis; assay type: functional, organism-based; settings: dose 10-20 mg/kg, time 10.0 day
[37] = Apparent oral clearance in Sprague-Dawley rat at 3 mg/kg, iv measured upto 1440 min by LC-MS/MS analysis; assay type: ADME, organism-based; settings: in vivo, 24 h
[38] = MRT in Sprague-Dawley rat at 30 mg/kg, po measured upto 1440 min by LC-MS/MS analysis; assay type: ADME, organism-based; settings: in vivo
[39] = Protein binding in rat plasma at 10.67 ug/ml of total concentration measured after 12 hrs by ultrafiltration based HPLC analysis; assay type: ADME, cell-free; settings: at 10.67 µg/mL, read-out: PPB (converted)
[40] = Induction of cell differentiation in C57BL/6 mouse naive regulatory T cells assessed as increase in cell frequency at 10 uM incubated for 72 hrs by flow cytometric analysis (reference value: 24.9%); assay type: functional
[41] = Cmax in Sprague-Dawley rat at 3 mg/kg, iv measured at 120 min by LC-MS/MS analysis; assay type: ADME, organism-based; set-up: time 120 min, dose 3 mg/kg, route iv; settings: in vivo

Nc1ccc(O)c(C(=O)O)c1 [MESALAMINE]
Activity [1]: 4.4%
Activity [2]: Active
Activity [3]: 2.6%

c1ccc2c(Cc3c[nH]c4ccccc34)c[nH]c2c1 [ARUNDINE]
fold induction at 3 µM [4]: 1.9
Activity [5]: 2.7%
fold change (FC) [6]: 2.1
Activity [7]: 34.3%
Activity [8]: 6.8%
fold change (FC) [9]: 2
Activity [10]: Active
Activity [11]: Active

COc1cc2c(cc1O)CC1NCCc3cc(OC)c(O)c-2c31 (configuration not stated)
Cp(f) [12]: 10020 ng/mL
Activity [13]: Active
CL/F [14]: 0.02 mg/(ng/ml)/min
Cp(f) [15]: 5200 ng/mL
fold induction at 10 µM [16]: 2.1
Activity [17]: 5.6%
Activity [18]: inactive
MRT [19]: 20.6 min
Activity [20]: 3.6%
Activity [21]: inactive
IC50 [22]: 80 µM
AUC(0-inf) [23]: 27.8 ng·h/mL
Activity [24]: 25.4%
Activity [25]: 37.8%
half-life [26]: 14.1 min
Activity [27]: 3%
Tmax [28]: 16 min
Activity [29]: 6%
AUC(0-inf) [30]: 112 ng·h/mL
Activity [31]: 208.3%
Activity [7]: 26.6%
Cmax [32]: 34.1 ng/mL
Cp(f) [33]: 18360 ng/mL
half-life [34]: 23.3 min
bioavailability [35]: 2.49%
Activity [36]: Active
CL/F [37]: 0 mg/(ng/ml)/min
MRT [38]: 42.2 min
fraction unbound at 12 h, 10.67 ug/ml [39]: 0.488
Activity [40]: 32%
Cmax [41]: 245 ng/mL

Reference: ChEMBL document CHEMBL5338769, “Discovery of Norisoboldine Analogue III11 as a Novel and Potent Aryl Hydrocarbon Receptor Agonist for the Treatment of Ulcerative Colitis” (J Med Chem, 2023)
